This is an account of results in ChEMBL document CHEMBL5352433, “Design, synthesis, and biological evaluation of low-toxic lappaconitine derivatives as potential analgesics” (Eur J Med Chem, 2022).

As usually defined, the inhibition in vivo is the drop in the measured response relative to a control, in per cent.

The test system of this assay is Mus musculus. Nature of the assay: Analgesic activity against acetic acid-induced Kunming writhing mouse model assessed as inhibition of writhing at 10 mg/kg, sc pretreated with compound for 15 mins followed by acetic acid addition and measured after 15 mins relative to control. The class given is functional. Particulars: 0.5 h, time 30 min. (In general: In writhing tests, fewer writhes than in controls are read as antinociception.)

As to `CCN1C[C@]2(OC(=O)c3ccccc3NS(=O)(=O)c3cccc(C)c3)CC[C@H](OC)[C@]34C1[C@H](C[C@H]23)[C@@]1(O)C[C@H](OC)[C@H]2C[C@@H]4[C@]1(O)[C@H]2OC`, the inhibition in vivo at 10 mg/kg came to 52.1%.
Then `CCN1C[C@]2(OC(=O)c3ccccc3NC(=O)c3cccc(OC)c3)CC[C@H](OC)[C@]34C1[C@H](C[C@H]23)[C@@]1(O)C[C@H](OC)[C@H]2C[C@@H]4[C@]1(O)[C@H]2OC`, with 0%; and `CCN1C[C@]2(OC(=O)c3ccccc3NS(=O)(=O)c3ccc(Cl)cc3)CC[C@H](OC)[C@]34C1[C@H](C[C@H]23)[C@@]1(O)C[C@H](OC)[C@H]2C[C@@H]4[C@]1(O)[C@H]2OC`, with 11.7%.
Then `CCN1C[C@]2(OC(=O)c3ccccc3NS(=O)(=O)c3cc(F)c(F)cc3F)CC[C@H](OC)[C@]34C1[C@H](C[C@H]23)[C@@]1(O)C[C@H](OC)[C@H]2C[C@@H]4[C@]1(O)[C@H]2OC`, with 26%.
Take `CCN1C[C@]2(OC(=O)c3ccccc3NC(=O)c3ccc(C)cc3C)CC[C@H](OC)[C@]34C1[C@H](C[C@H]23)[C@@]1(O)C[C@H](OC)[C@H]2C[C@@H]4[C@]1(O)[C@H]2OC`: the inhibition in vivo at 10 mg/kg worked out at 0%.
In the case of `CCN1C[C@]2(OC(=O)c3ccccc3NS(=O)(=O)c3ccc(Br)cc3)CC[C@H](OC)[C@]34C1[C@H](C[C@H]23)[C@@]1(O)C[C@H](OC)[C@H]2C[C@@H]4[C@]1(O)[C@H]2OC`, the inhibition in vivo at 10 mg/kg stood at 11.4%.
As to `CCN1C[C@]2(OC(=O)c3ccccc3NS(=O)(=O)Cc3ccc([N+](=O)[O-])cc3)CC[C@H](OC)[C@]34C1[C@H](C[C@H]23)[C@@]1(O)C[C@H](OC)[C@H]2C[C@@H]4[C@]1(O)[C@H]2OC`, the inhibition in vivo at 10 mg/kg came to 42.4%.
In the case of `CCN1C[C@]2(OC(=O)c3ccccc3NS(=O)(=O)CCCCl)CC[C@H](OC)[C@]34C1[C@H](C[C@H]23)[C@@]1(O)C[C@H](OC)[C@H]2C[C@@H]4[C@]1(O)[C@H]2OC` it was 32.1%; in that of `CCN1C[C@]2(OC(=O)c3ccccc3NS(=O)(=O)c3cc(OC)ccc3OC)CC[C@H](OC)[C@]34C1[C@H](C[C@H]23)[C@@]1(O)C[C@H](OC)[C@H]2C[C@@H]4[C@]1(O)[C@H]2OC`, 65.8%.
In the case of `CCN1C[C@]2(OC(=O)c3ccccc3NS(=O)(=O)c3c(C)cc(C)cc3C)CC[C@H](OC)[C@]34C1[C@H](C[C@H]23)[C@@]1(O)C[C@H](OC)[C@H]2C[C@@H]4[C@]1(O)[C@H]2OC` it was 52.1%; in that of `CCN1C[C@]2(OC(=O)c3ccccc3NC(=O)c3ccccc3N(C)C)CC[C@H](OC)[C@]34C1[C@H](C[C@H]23)[C@@]1(O)C[C@H](OC)[C@H]2C[C@@H]4[C@]1(O)[C@H]2OC`, 34.2%; in that of `CCN1C[C@]2(OC(=O)c3ccccc3NS(=O)(=O)c3ccccc3Cl)CC[C@H](OC)[C@]34C1[C@H](C[C@H]23)[C@@]1(O)C[C@H](OC)[C@H]2C[C@@H]4[C@]1(O)[C@H]2OC`, 64.3%.
In the case of `CCN1C[C@]2(OC(=O)c3ccccc3NS(=O)(=O)c3cccc(F)c3)CC[C@H](OC)[C@]34C1[C@H](C[C@H]23)[C@@]1(O)C[C@H](OC)[C@H]2C[C@@H]4[C@]1(O)[C@H]2OC`, the inhibition in vivo at 10 mg/kg came out at 50.2%.
For `CCN1C[C@]2(OC(=O)c3ccccc3NS(=O)(=O)c3ccc(OC)cc3OC)CC[C@H](OC)[C@]34C1[C@H](C[C@H]23)[C@@]1(O)C[C@H](OC)[C@H]2C[C@@H]4[C@]1(O)[C@H]2OC`, the inhibition in vivo at 10 mg/kg amounted to 34.9%.
As for `CCN1C[C@]2(OC(=O)c3ccccc3NS(=O)(=O)c3ccc(F)cc3F)CC[C@H](OC)[C@]34C1[C@H](C[C@H]23)[C@@]1(O)C[C@H](OC)[C@H]2C[C@@H]4[C@]1(O)[C@H]2OC`, the inhibition in vivo at 10 mg/kg was determined as 27.2%.
For the compound `CCN1C[C@]2(OC(=O)c3ccccc3NS(=O)(=O)CC)CC[C@H](OC)[C@]34C1[C@H](C[C@H]23)[C@@]1(O)C[C@H](OC)[C@H]2C[C@@H]4[C@]1(O)[C@H]2OC`, the inhibition in vivo at 10 mg/kg was 4%.
Regarding `CCN1C[C@]2(OC(=O)c3ccccc3NS(=O)(=O)c3cc(Cl)ccc3OC)CC[C@H](OC)[C@]34C1[C@H](C[C@H]23)[C@@]1(O)C[C@H](OC)[C@H]2C[C@@H]4[C@]1(O)[C@H]2OC`, the inhibition in vivo at 10 mg/kg was found to be 43.2%.
In the case of `CCN1C[C@]2(OC(=O)c3ccccc3NS(C)(=O)=O)CC[C@H](OC)[C@]34C1[C@H](C[C@H]23)[C@@]1(O)C[C@H](OC)[C@H]2C[C@@H]4[C@]1(O)[C@H]2OC` it was 22.8%; in that of `CCN1C[C@]2(OC(=O)c3ccccc3NS(=O)(=O)c3ccc(OC)cc3)CC[C@H](OC)[C@]34C1[C@H](C[C@H]23)[C@@]1(O)C[C@H](OC)[C@H]2C[C@@H]4[C@]1(O)[C@H]2OC`, 16.8%.
Consider `CCN1C[C@]2(OC(=O)c3ccccc3NS(=O)(=O)c3ccc(OC)c(OC)c3)CC[C@H](OC)[C@]34C1[C@H](C[C@H]23)[C@@]1(O)C[C@H](OC)[C@H]2C[C@@H]4[C@]1(O)[C@H]2OC`, for which the inhibition in vivo at 10 mg/kg amounted to 13.7%.
Take `CCN1C[C@]2(OC(=O)c3ccccc3NS(=O)(=O)c3ccccc3F)CC[C@H](OC)[C@]34C1[C@H](C[C@H]23)[C@@]1(O)C[C@H](OC)[C@H]2C[C@@H]4[C@]1(O)[C@H]2OC`: the inhibition in vivo at 10 mg/kg was found to be 60.3%.
Turning to `CCN1C[C@]2(OC(=O)c3ccccc3NS(=O)(=O)c3ccc(N(C)C)cc3)CC[C@H](OC)[C@]34C1[C@H](C[C@H]23)[C@@]1(O)C[C@H](OC)[C@H]2C[C@@H]4[C@]1(O)[C@H]2OC`, the inhibition in vivo at 10 mg/kg turned out to be 23%.
In the case of `CCN1C[C@]2(OC(=O)c3ccccc3NS(=O)(=O)c3ccc(C)cc3)CC[C@H](OC)[C@]34C1[C@H](C[C@H]23)[C@@]1(O)C[C@H](OC)[C@H]2C[C@@H]4[C@]1(O)[C@H]2OC` it was 27.7%.
In the case of `CCCOc1ccccc1C(=O)Nc1ccccc1C(=O)O[C@@]12CC[C@H](OC)[C@]34C([C@H](C[C@H]13)[C@@]1(O)C[C@H](OC)[C@H]3C[C@@H]4[C@]1(O)[C@H]3OC)N(CC)C2` it was 19.2%; in that of `CCN1C[C@]2(OC(=O)c3ccccc3NS(=O)(=O)c3ccc(F)cc3)CC[C@H](OC)[C@]34C1[C@H](C[C@H]23)[C@@]1(O)C[C@H](OC)[C@H]2C[C@@H]4[C@]1(O)[C@H]2OC`, 14.7%.
With `CCN1C[C@]2(OC(=O)c3ccccc3NS(=O)(=O)c3ccc(C(F)(F)F)cc3)CC[C@H](OC)[C@]34C1[C@H](C[C@H]23)[C@@]1(O)C[C@H](OC)[C@H]2C[C@@H]4[C@]1(O)[C@H]2OC`, the inhibition in vivo at 10 mg/kg is 19.4%.
In the case of `CCN1C[C@]2(OC(=O)c3ccccc3NC(=O)c3cccc(C)c3)CC[C@H](OC)[C@]34C1[C@H](C[C@H]23)[C@@]1(O)C[C@H](OC)[C@H]2C[C@@H]4[C@]1(O)[C@H]2OC` it was 36.9%.
In the case of `CCN1C[C@]2(OC(=O)c3ccccc3NS(=O)(=O)c3ccc(C#N)cc3)CC[C@H](OC)[C@]34C1[C@H](C[C@H]23)[C@@]1(O)C[C@H](OC)[C@H]2C[C@@H]4[C@]1(O)[C@H]2OC` it was 21.4%; in that of `CCN1C[C@]2(OC(=O)c3ccccc3NS(=O)(=O)Cc3ccccc3)CC[C@H](OC)[C@]34C1[C@H](C[C@H]23)[C@@]1(O)C[C@H](OC)[C@H]2C[C@@H]4[C@]1(O)[C@H]2OC`, 43.8%.
In the case of `CCN1C[C@]2(OC(=O)c3ccccc3NS(=O)(=O)c3ccc(-c4ccccc4)cc3)CC[C@H](OC)[C@]34C1[C@H](C[C@H]23)[C@@]1(O)C[C@H](OC)[C@H]2C[C@@H]4[C@]1(O)[C@H]2OC` it was 16.1%; in that of `CCCCc1ccc(C(=O)Nc2ccccc2C(=O)O[C@@]23CC[C@H](OC)[C@]45C([C@H](C[C@H]24)[C@@]2(O)C[C@H](OC)[C@H]4C[C@@H]5[C@]2(O)[C@H]4OC)N(CC)C3)cc1`, 28.2%; in that of `CCN1C[C@]2(OC(=O)c3ccccc3NS(=O)(=O)c3cccc(OC)c3)CC[C@H](OC)[C@]34C1[C@H](C[C@H]23)[C@@]1(O)C[C@H](OC)[C@H]2C[C@@H]4[C@]1(O)[C@H]2OC`, 37.1%.
With `CCN1C[C@]2(OC(=O)c3ccccc3NS(=O)(=O)c3cc(F)cc(F)c3)CC[C@H](OC)[C@]34C1[C@H](C[C@H]23)[C@@]1(O)C[C@H](OC)[C@H]2C[C@@H]4[C@]1(O)[C@H]2OC`, the inhibition in vivo at 10 mg/kg came to 37.5%.
On to `CCN1C[C@]2(OC(=O)c3ccccc3NS(=O)(=O)c3cccc(Cl)c3)CC[C@H](OC)[C@]34C1[C@H](C[C@H]23)[C@@]1(O)C[C@H](OC)[C@H]2C[C@@H]4[C@]1(O)[C@H]2OC`, for which the inhibition in vivo at 10 mg/kg came to 33.1%.
As for `CCN1C[C@]2(OC(=O)c3ccccc3NC(=O)c3ccc(OC)c(OC)c3)CC[C@H](OC)[C@]34C1[C@H](C[C@H]23)[C@@]1(O)C[C@H](OC)[C@H]2C[C@@H]4[C@]1(O)[C@H]2OC`, the inhibition in vivo at 10 mg/kg was determined as 34.6%.
`CCN1C[C@]2(OC(=O)c3ccccc3NS(=O)(=O)c3ccc(F)c(F)c3)CC[C@H](OC)[C@]34C1[C@H](C[C@H]23)[C@@]1(O)C[C@H](OC)[C@H]2C[C@@H]4[C@]1(O)[C@H]2OC`: the inhibition in vivo at 10 mg/kg was 28.3%.
`CCN1C[C@]2(OC(=O)c3ccccc3NS(=O)(=O)c3cc(F)ccc3F)CC[C@H](OC)[C@]34C1[C@H](C[C@H]23)[C@@]1(O)C[C@H](OC)[C@H]2C[C@@H]4[C@]1(O)[C@H]2OC`: the inhibition in vivo at 10 mg/kg came out at 45.1%.
